How the values were obtained:
[1] = system: SGC-7901; assay: Antiproliferative activity against human SGC-7901 cells assessed as cell growth inhibition incubated for 72 hrs by MTT assay; type: functional, cell-based; settings: SGC-7901, 72 h
[2] = system: HT-1080; assay: Antiproliferative activity against human HT-1080 cells assessed as cell growth inhibition incubated for 72 hrs by MTT assay; type: functional, cell-based; settings: HT-1080, 72 h
[3] = system: MCF7; assay: Antiproliferative activity against human MCF7 cells assessed as cell growth inhibition incubated for 72 hrs by MTT assay; type: functional, cell-based; settings: MCF7, 72 h
[4] = biological target: Tubulin (Homo sapiens) (UniProt P68371+Q9H4B7+P0DPH7+P68366+Q13509+Q71U36+P04350+Q3ZCM7+P07437+P68363+Q9BQE3+Q6PEY2+Q13885+Q9BVA1+Q9BUF5); assay: Binding affinity to tubulin (unknown origin) at colchicine binding site assessed as tubulin-colchicine complex competition rate at 1.25 uM preincubated for 45 mins followed by colchicine addition by fluorescence based assay relative to control; type: protein-complex assay
[5] = system: 4T1; assay: Antitumor activity against mouse 4T1 cells allografted in Balb/c mouse assessed as tumor weight at 5 mg/kg, iv administered every other day measured after 12 days (reference value: 448 mg); type: functional; settings: time 12 day
[6] = system: SGC-7901; assay: Induction of cell cycle arrest in human SGC-7901 cells assessed as accumulation at G0/G1 phase at 2 times IC50 incubated for 6 hrs by PI/RNase staining based flow cytometry (reference value: 41 %); type: functional
[7] = system: SGC-7901; assay: Induction of cell cycle arrest in human SGC-7901 cells assessed as accumulation at S phase at 2 times IC50 incubated for 12 hrs by PI/RNase staining based flow cytometry (reference value: 44 %); type: functional
[8] = system: SGC-7901; assay: Induction of cell cycle arrest in human SGC-7901 cells assessed as accumulation at G2/M phase at 2 times IC50 incubated for 12 hrs by PI/RNase staining based flow cytometry (reference value: 9 %); type: functional
[9] = system: SGC-7901; assay: Induction of cell cycle arrest in human SGC-7901 cells assessed as accumulation at G2/M phase at 2 times IC50 incubated for 24 hrs by PI/RNase staining based flow cytometry (reference value: 9 %); type: functional
[10] = system: SGC-7901; assay: Induction of cell cycle arrest in human SGC-7901 cells assessed as accumulation at sub-G1 phase at 2 times IC50 incubated for 12 hrs by PI/RNase staining based flow cytometry (reference value: 6 %); type: functional
[11] = system: SGC-7901; assay: Induction of cell cycle arrest in human SGC-7901 cells assessed as accumulation at sub-G1 phase at 2 times IC50 incubated for 24 hrs by PI/RNase staining based flow cytometry (reference value: 6 %); type: functional
[12] = system: SGC-7901; assay: Induction of cell cycle arrest in human SGC-7901 cells assessed as accumulation at G2/M phase at 2 times IC50 incubated for 6 hrs by PI/RNase staining based flow cytometry (reference value: 9 %); type: functional
[13] = system: SGC-7901; assay: Induction of cell cycle arrest in human SGC-7901 cells assessed as accumulation at sub-G1 phase at 2 times IC50 incubated for 6 hrs by PI/RNase staining based flow cytometry (reference value: 6 %); type: functional
[14] = system: SGC-7901; assay: Induction of cell cycle arrest in human SGC-7901 cells assessed as accumulation at G0/G1 phase at 2 times IC50 incubated for 72 hrs by PI/RNase staining based flow cytometry (reference value: 41 %); type: functional
[15] = system: SGC-7901; assay: Induction of cell cycle arrest in human SGC-7901 cells assessed as accumulation at G2/M phase at 2 times IC50 incubated for 72 hrs by PI/RNase staining based flow cytometry (reference value: 9 %); type: functional
[16] = system: SGC-7901; assay: Induction of cell cycle arrest in human SGC-7901 cells assessed as accumulation at S phase at 2 times IC50 incubated for 72 hrs by PI/RNase staining based flow cytometry (reference value: 44 %); type: functional
[17] = Selectivity index, ratio of IC50 for HUVEC cells to IC50 for human SGC-7901 cells; type: functional
[18] = Cytotoxicity against HUVEC cells assessed as cell growth inhibition incubated for 72 hrs by MTT assay; type: toxicity, cell-based; settings: human
[19] = system: SGC-7901; assay: Induction of cell cycle arrest in human SGC-7901 cells assessed as accumulation at S phase at 2 times IC50 incubated for 24 hrs by PI/RNase staining based flow cytometry (reference value: 44 %); type: functional
[20] = system: SGC-7901; assay: Induction of cell cycle arrest in human SGC-7901 cells assessed as accumulation at G0/G1 phase at 2 times IC50 incubated for 24 hrs by PI/RNase staining based flow cytometry (reference value: 41 %); type: functional
[21] = system: SGC-7901; assay: Induction of cell cycle arrest in human SGC-7901 cells assessed as accumulation at G2/M phase at 2 times IC50 incubated for 48 hrs by PI/RNase staining based flow cytometry (reference value: 9 %); type: functional
[22] = system: SGC-7901; assay: Induction of cell cycle arrest in human SGC-7901 cells assessed as accumulation at G0/G1 phase at 2 times IC50 incubated for 48 hrs by PI/RNase staining based flow cytometry (reference value: 41 %); type: functional
[23] = system: SGC-7901; assay: Induction of cell cycle arrest in human SGC-7901 cells assessed as accumulation at G0/G1 phase at 2 times IC50 incubated for 12 hrs by PI/RNase staining based flow cytometry (reference value: 41 %); type: functional
[24] = system: SGC-7901; assay: Induction of cell cycle arrest in human SGC-7901 cells assessed as accumulation at sub-G1 phase at 2 times IC50 incubated for 72 hrs by PI/RNase staining based flow cytometry (reference value: 6 %); type: functional
[25] = system: SGC-7901; assay: Induction of cell cycle arrest in human SGC-7901 cells assessed as accumulation at S phase at 2 times IC50 incubated for 6 hrs by PI/RNase staining based flow cytometry (reference value: 44 %); type: functional
[26] = system: SGC-7901; assay: Induction of cell cycle arrest in human SGC-7901 cells assessed as accumulation at sub-G1 phase at 2 times IC50 incubated for 48 hrs by PI/RNase staining based flow cytometry (reference value: 6 %); type: functional
[27] = system: SGC-7901; assay: Induction of cell cycle arrest in human SGC-7901 cells assessed as accumulation at S phase at 2 times IC50 incubated for 48 hrs by PI/RNase staining based flow cytometry (reference value: 44 %); type: functional

## COc1ccc(-c2csc3nc(-c4cc(OC)c(OC)c(OC)c4)nn23)cc1OC
[1]
  IC50: 3.69 µM
[2]
  IC50: 11.7 µM
[3]
  IC50: 5.88 µM

## COc1ccc(-c2csc3nc(-c4cc(OC)c(OC)c(OC)c4)nn23)cc1F
[1]
  IC50: 10 µM
[2]
  IC50: 3.79 µM
[3]
  IC50: 5.08 µM

## COc1cc(-c2nc3scc(-c4ccccc4F)n3n2)cc(OC)c1OC
[1]
  IC50: 7.3 µM
[2]
  IC50: 1.65 µM
[3]
  IC50: 5.89 µM

## COc1cc(-c2nc3scc(-c4cccc([N+](=O)[O-])c4)n3n2)cc(OC)c1OC
[1]
  IC50: 0.75 µM
[2]
  IC50: 1.5 µM
[3]
  IC50: 3.13 µM

## COc1cc(-c2nc3scc(-c4cccc(Br)c4)n3n2)cc(OC)c1OC
[1]
  IC50: 0.62 µM
[2]
  IC50: 1.71 µM
[3]
  IC50: 3.46 µM

## COc1ccccc1-c1csc2nc(-c3cc(OC)c(OC)c(OC)c3)nn12
[1]
  IC50: 7.25 µM
[2]
  IC50: 7.55 µM
[3]
  IC50: 4.99 µM

## COc1ccc(/C=C\c2cc(OC)c(OC)c(OC)c2)cc1O
[4]
  Activity: 23.8%

## COc1cc(-c2nc3scc(-c4ccccc4Br)n3n2)cc(OC)c1OC
[1]
  IC50: 6.41 µM
[2]
  IC50: 1.36 µM
[3]
  IC50: 5.26 µM

## COc1cc(-c2nc3scc(-c4ccc([N+](=O)[O-])cc4)n3n2)cc(OC)c1OC
[1]
  IC50: 3.03 µM
[2]
  IC50: 4.3 µM
[3]
  IC50: > 30 µM

## COc1cccc(-c2csc3nc(-c4cc(OC)c(OC)c(OC)c4)nn23)c1
[1]
  IC50: 0.94 µM
[2]
  IC50: 2.18 µM
[3]
  IC50: 4.94 µM

## Nc1ccn([C@@H]2O[C@H](CO)[C@@H](O)C2(F)F)c(=O)n1 [GEMCITABINE]
[5]
  Activity: 17.02 mg

## COc1cc(-c2nc3scc(-c4cc(F)cc(F)c4)n3n2)cc(OC)c1OC
[1]
  IC50: 0.61 µM
[2]
  IC50: 2.31 µM
[3]
  IC50: 3.86 µM

## COc1cc(-c2nc3scc(-c4ccc(F)cc4)n3n2)cc(OC)c1OC
[1]
  IC50: > 30 µM
[2]
  IC50: > 30 µM
[3]
  IC50: > 30 µM

## COc1cc(-c2nc3scc(-c4ccccc4)n3n2)cc(OC)c1OC
[1]
  IC50: 0.88 µM
[2]
  IC50: 3.64 µM
[3]
  IC50: 4.38 µM

## COc1cc(-c2nc3scc(-c4cccc(N)c4)n3n2)cc(OC)c1OC
[1]
  IC50: 0.82 µM
[2]
  IC50: 2.13 µM
[3]
  IC50: 3.61 µM

## COc1ccc(-c2csc3nc(-c4cc(OC)c(OC)c(OC)c4)nn23)cc1
[1]
  IC50: 6.19 µM
[2]
  IC50: 3.76 µM
[3]
  IC50: 8.28 µM

## COc1cc(-c2nc3scc(-c4ccc(F)c(F)c4)n3n2)cc(OC)c1OC
[1]
  IC50: 8.11 µM
[2]
  IC50: 2.85 µM
[3]
  IC50: 4.97 µM

## COc1cc(-c2nc3scc(-c4cccc(Cl)c4)n3n2)cc(OC)c1OC
[1]
  IC50: 0.43 µM
[2]
  IC50: 1.53 µM
[3]
  IC50: 3.09 µM

## COc1cc(-c2nc3scc(-c4ccc(C(F)(F)F)cc4)n3n2)cc(OC)c1OC
[1]
  IC50: 4.09 µM
[2]
  IC50: 2.91 µM
[3]
  IC50: 12.2 µM

## COc1cc2c(c(OC)c1OC)-c1ccc(OC)c(=O)cc1[C@@H](NC(C)=O)CC2 [COLCHICINE]
[6]
  Activity: 33%
[7]
  Activity: 16%
[8]
  Activity: 52%
[9]
  Activity: 64%
[10]
  Activity: 12%
[11]
  Activity: 14%
[12]
  Activity: 16%
[13]
  Activity: 9%
[14]
  Activity: 1%
[15]
  Activity: 50%
[16]
  Activity: 8%
[17]
  Ratio IC50: 1.91
[18]
  IC50 at 72 h: 0.21 µM
[19]
  Activity: 12%
[20]
  Activity: 10%
[1]
  IC50: 0.11 µM
[21]
  Activity: 72%
[22]
  Activity: 0%
[23]
  Activity: 20%
[24]
  Activity: 41%
[25]
  Activity: 42%
[2]
  IC50: 0.073 µM
[26]
  Activity: 16%
[27]
  Activity: 12%
[3]
  IC50: 0.068 µM

## COc1cc(-c2nc3scc(-c4ccc(Br)cc4)n3n2)cc(OC)c1OC
[1]
  IC50: 5.82 µM
[2]
  IC50: 7.49 µM
[3]
  IC50: 6.88 µM

## COc1cc(-c2nc3scc(-c4cccc(F)c4)n3n2)cc(OC)c1OC
[1]
  IC50: 0.78 µM
[2]
  IC50: 2.74 µM
[3]
  IC50: 4.86 µM

## COc1cc(-c2nc3scc(-c4ccc(Cl)cc4)n3n2)cc(OC)c1OC
[1]
  IC50: 2.19 µM
[2]
  IC50: 3.75 µM
[3]
  IC50: 4.64 µM

## COc1cc(-c2nc3scc(-c4ccc(C)cc4)n3n2)cc(OC)c1OC
[1]
  IC50: 3.66 µM
[2]
  IC50: 1.51 µM
[3]
  IC50: 2.58 µM

## COc1cc(-c2nc3scc(-c4cc(C)cc(C)c4)n3n2)cc(OC)c1OC
[1]
  IC50: 0.55 µM
[2]
  IC50: 1.42 µM
[3]
  IC50: 5.41 µM

## COc1cc(-c2nc3scc(-c4ccccc4Cl)n3n2)cc(OC)c1OC
[1]
  IC50: 4.47 µM
[2]
  IC50: 3.38 µM
[3]
  IC50: 7.48 µM
